The results in this text go back to PubChem BioAssay (NCI).

Test systems include COLO 205 colon; DU-145 prostate; EKVX NSCLC; HCC-2998 colon; HT29 colon; KM12 colon; MDA-MB-435; MDA-N; MOLT-4 leukemia; NCI-H226 lung; NCI-H460 lung; NCI-H522 lung; RPMI-8226 leukemia; RXF 393 renal; SK-OV-3 ovarian; SR leukemia; UACC-257 melanoma; PC-3 prostate; SNB-75 CNS.
What all share (assay): NCI anticancer screen, dose series, 48 h

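Grown in 96-well plates, cells were treated for 48 hours with each compound at five concentrations. Insufficient inhibition: endpoint recorded as highest concentration tested. TGI is the concentration that stops growth completely.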 Where only a bound is given, the exact number is not on record here.

Turning to `CC(=O)Nc1cccc(N2C(=O)/C(=C\c3cccc(Oc4ccccc4)c3)SC2c2ccccc2)c1` (stereo not drawn), the TGI in the assay on COLO 205 colon, in the assay on DU-145 prostate, in the assay on EKVX NSCLC, in the assay on HCC-2998 colon, with HT29 colon and with KM12 colon was over 100 µM in each case. Also, the TGI in the assay on MDA-MB-435, with MDA-N, with MOLT-4 leukemia, with NCI-H226 lung, with NCI-H460 lung and in the assay on NCI-H522 lung was over 100 µM each time. Also, the TGI was 89 µM in the assay on RPMI-8226 leukemia; over 100 µM in the assay with RXF 393 renal; over 100 µM in the assay on SK-OV-3 ovarian; 47.1 µM with SR leukemia; over 100 µM in the assay on UACC-257 melanoma.

As to `COc1ccc(-c2nc(-c3cnccn3)n(C3OC(CO)C(O)C3O)n2)cc1` (stereo not drawn), the TGI in the assay with EKVX NSCLC, with HCC-2998 colon, in the assay with HT29 colon, with KM12 colon, with MDA-MB-435 and in the assay on MOLT-4 leukemia was over 10 µM each time. The TGI in the assay on NCI-H226 lung, in the assay on NCI-H460 lung, with NCI-H522 lung, in the assay on PC-3 prostate, with SK-OV-3 ovarian and with SNB-75 CNS was over 10 µM each time. The TGI in the assay with SR leukemia and with UACC-257 melanoma was over 10 µM throughout.

As to `O=C(NCCN1CCCCC1)c1cccc(I)c1`, the TGI with EKVX NSCLC, in the assay with HCC-2998 colon, in the assay with HT29 colon, in the assay on KM12 colon, in the assay with MOLT-4 leukemia and with NCI-H226 lung was over 100 µM in each case. Besides, the TGI in the assay on NCI-H460 lung, with PC-3 prostate, in the assay with RPMI-8226 leukemia, in the assay with RXF 393 renal, in the assay on SK-OV-3 ovarian and in the assay on SNB-75 CNS was over 100 µM in each case. The TGI in the assay with SR leukemia was over 100 µM.

On to `Cc1ccc(S(=O)(=O)N2CCNCCN(S(=O)(=O)c3ccc(C)cc3)CCNCC2)cc1`, for which the TGI in the assay on COLO 205 colon is 31.1 µM; in the assay on DU-145 prostate, 71.8 µM; in the assay with EKVX NSCLC, over 100 µM; with HCC-2998 colon, 33.4 µM; in the assay on HT29 colon, 30.2 µM; in the assay on KM12 colon it was 42.1 µM. Besides, the TGI turned out to be 36.4 µM with MDA-MB-435; 40.9 µM in the assay on MDA-N; 44 µM in the assay with NCI-H226 lung; 36.8 µM in the assay on NCI-H460 lung; 36.5 µM with NCI-H522 lung; 14.7 µM in the assay on RXF 393 renal. The TGI in the assay with SK-OV-3 ovarian came to 41.1 µM; in the assay with SNB-75 CNS it was 42.8 µM; with SR leukemia, 34.1 µM; in the assay on UACC-257 melanoma it was 33 µM.

Consider `O=c1c(Sc2c(SCSc3cnc4ccccc4c3Sc3c[nH]c4ccccc4c3=O)cnc3ccccc23)c[nH]c2ccccc12`, for which the TGI in the assay with COLO 205 colon, with DU-145 prostate, in the assay on EKVX NSCLC, in the assay on HCC-2998 colon, in the assay on HT29 colon and in the assay on KM12 colon was over 100 µM throughout. Besides, the TGI with MDA-MB-435, in the assay on MDA-N, in the assay on MOLT-4 leukemia, in the assay on NCI-H460 lung, in the assay with NCI-H522 lung and in the assay with RPMI-8226 leukemia was over 100 µM throughout. Moreover, the TGI in the assay with SNB-75 CNS is over 100 µM; with SR leukemia it was 25 µM; with UACC-257 melanoma, over 100 µM.

With `COc1cc([C@@H]2c3cc4c(cc3[C@@H](Nc3ccc(Cl)cc3C(=O)c3ccccc3)[C@H]3COC(=O)[C@H]23)OCO4)cc(OC)c1OC`, the TGI was over 100 µM in the assay on DU-145 prostate; over 100 µM in the assay on EKVX NSCLC; over 93.6 µM in the assay with MDA-N; over 100 µM with MOLT-4 leukemia; over 100 µM in the assay with NCI-H460 lung; 0.918 µM with NCI-H522 lung. Also, the TGI in the assay on RPMI-8226 leukemia, in the assay with SK-OV-3 ovarian and in the assay with UACC-257 melanoma was over 100 µM each time.

For `COc1ccc(-c2nc(Nc3ccccc3)sc2Cc2sc(Nc3ccccc3)nc2-c2ccc(OC)cc2)cc1`, the TGI with COLO 205 colon, in the assay on DU-145 prostate, with EKVX NSCLC, in the assay on HCC-2998 colon, in the assay with HT29 colon and with KM12 colon was over 100 µM in each case. In addition, the TGI in the assay with MDA-MB-435, in the assay with MDA-N, in the assay on MOLT-4 leukemia, in the assay with NCI-H226 lung, in the assay on NCI-H460 lung and in the assay with RPMI-8226 leukemia was over 100 µM each time. Besides, the TGI in the assay on RXF 393 renal was 26.8 µM; in the assay with SK-OV-3 ovarian it was over 100 µM; in the assay on SNB-75 CNS, over 100 µM; in the assay on SR leukemia, over 100 µM; in the assay with UACC-257 melanoma, over 100 µM.

Turning to `COC(=O)[C@@](NC(=O)OCc1ccccc1)([C@H](C)O)C(F)(F)F`, the TGI with COLO 205 colon, in the assay with DU-145 prostate, with EKVX NSCLC, with HCC-2998 colon, in the assay with HT29 colon and in the assay on KM12 colon was over 100 µM throughout. Further, the TGI in the assay with MDA-MB-435, with MOLT-4 leukemia, with NCI-H226 lung, with NCI-H460 lung, in the assay with NCI-H522 lung and with PC-3 prostate was over 100 µM in each case. Also, the TGI in the assay on RPMI-8226 leukemia, in the assay on RXF 393 renal, in the assay on SK-OV-3 ovarian, in the assay with SNB-75 CNS, with SR leukemia and with UACC-257 melanoma was over 100 µM in each case.

`COc1ccc(COCC[C@H](C)OC2OC(CO)C(O)C(O)C2O)cc1` (stereo partly drawn): the TGI in the assay on COLO 205 colon, in the assay on DU-145 prostate, with EKVX NSCLC, in the assay on HCC-2998 colon, in the assay on HT29 colon and with KM12 colon was over 100 µM each time. Also, the TGI in the assay on MDA-MB-435, in the assay with MOLT-4 leukemia, in the assay on NCI-H226 lung, in the assay on NCI-H460 lung, in the assay with NCI-H522 lung and in the assay on PC-3 prostate was over 100 µM each time. Besides, the TGI in the assay with RPMI-8226 leukemia, in the assay with RXF 393 renal, in the assay on SK-OV-3 ovarian, with SNB-75 CNS, in the assay with SR leukemia and in the assay on UACC-257 melanoma was over 100 µM throughout.

In the case of `C=C1C(=O)O[C@H]2C1C[C@H](O)[C@@]1(C)OC1CC[C@@]1(C)O[C@H]21` (stereo partly drawn), the TGI with COLO 205 colon is 16.9 µM; in the assay with DU-145 prostate it was over 100 µM; in the assay on EKVX NSCLC it was 38.4 µM; in the assay on HCC-2998 colon it was 28.5 µM; in the assay on HT29 colon it was over 100 µM; in the assay on KM12 colon, 55.1 µM. Besides, the TGI in the assay with MDA-MB-435 was 53.2 µM; in the assay with MOLT-4 leukemia it was 29.8 µM; with NCI-H460 lung, over 100 µM; in the assay with NCI-H522 lung, 11.9 µM; in the assay on PC-3 prostate it was 39.1 µM; with RPMI-8226 leukemia, 30.2 µM. In addition, the TGI is 46.9 µM in the assay on RXF 393 renal; over 100 µM in the assay with SK-OV-3 ovarian; over 100 µM with SNB-75 CNS; 40.5 µM with SR leukemia; 37.8 µM in the assay on UACC-257 melanoma.

`Cc1ccc(S(=O)(=O)N2CCSCCSCCSCCN(S(=O)(=O)c3ccc(C)cc3)CC2)cc1`: the TGI in the assay with COLO 205 colon, in the assay on DU-145 prostate, in the assay with EKVX NSCLC, in the assay with HCC-2998 colon, in the assay with HT29 colon and in the assay on KM12 colon was over 100 µM in each case. For the same molecule, the TGI with MDA-MB-435, in the assay with MDA-N, in the assay on MOLT-4 leukemia, in the assay on NCI-H226 lung, in the assay on NCI-H460 lung and in the assay on RPMI-8226 leukemia was over 100 µM throughout. Moreover, the TGI in the assay with RXF 393 renal, in the assay with SK-OV-3 ovarian, in the assay on SNB-75 CNS and in the assay with UACC-257 melanoma was over 100 µM each time.

Take `CC(C)(O)c1cc2c(cc1C(C)(C)O)-c1ccccc1-2`: the TGI in the assay on COLO 205 colon, in the assay with DU-145 prostate, in the assay on EKVX NSCLC, in the assay with HCC-2998 colon, in the assay on KM12 colon and in the assay with MDA-MB-435 was over 100 µM in each case. The TGI with MOLT-4 leukemia, in the assay on NCI-H226 lung, with NCI-H460 lung, in the assay on NCI-H522 lung, in the assay on PC-3 prostate and with RPMI-8226 leukemia was over 100 µM each time. Moreover, the TGI in the assay with RXF 393 renal, in the assay on SNB-75 CNS, in the assay on SR leukemia and with UACC-257 melanoma was over 100 µM throughout.

Turning to `CCOC(=O)c1nc2ccc(C(F)(F)F)cc2nc1Nc1ccc(OC)cc1`, the TGI with COLO 205 colon, in the assay with DU-145 prostate, with EKVX NSCLC, in the assay on HCC-2998 colon, in the assay with HT29 colon and with KM12 colon was over 100 µM each time. Moreover, the TGI with MDA-MB-435, in the assay on MOLT-4 leukemia, in the assay on NCI-H226 lung, in the assay on NCI-H460 lung, with NCI-H522 lung and with PC-3 prostate was over 100 µM in each case. For the same molecule, the TGI with RPMI-8226 leukemia is over 100 µM; in the assay on RXF 393 renal, 70.1 µM; with SNB-75 CNS it was over 100 µM; with SR leukemia, over 100 µM; in the assay on UACC-257 melanoma it was over 100 µM.
